According to patent publication US20230331685A1, “HERBICIDAL COMPOUNDS AND METHODS OF USE THEREOF” (AG Plenus Ltd, priority 2020, published 2023):

Columns and labels:
Type in all cases: in vivo
Arabidopsis thaliana [1] = assay: HTPS post-emergence application on miniature dicot model plant; conditions: for Emax: Arabidopsis thaliana, post-emergence, green area (RGB), read-out: Max Inhibition (%); for ED50 (g/ha): dose-response of normalized green area
Procedure: (§1) The plates were placed in a controlled greenhouse in a random order inside a bath which allows flooding irrigation with tap water supplemented with a fertilizer. Applied compounds were dissolved into a final solution of 50% acetone, 49.9% DDW, 0.1% tween-20. A 96 well plate was used as a stock plate for preparing application solutions for 8 repeats. Each row contained different concentrations per chemical. Maximal concentration for application was 1.5 Kg/Ha and dilution factor is 2.5. Chemical application was performed one day after thinning out in a chemical hood. […] applied on first two true leaves in each well using 12 channel pipettes. Data collection: RGB (red, green, blue) data for green area per well was documented using camera. Data is collected at a few time points during the experiment: one day after thinning and before chemical application, two-, six- or nine-days post application. During the last two documentations, visual phenotyping was performed. Data analysis: Given RGB results and visual phenotype scores, a student t-test conducted to compare between treatment and control performance for continuous data (RGB) and Fisher exact test to analyze the non-continuous data (phenotypic scores). Dose-Response curves are generated for each treatment to infer ED50 and max. inhibition parameters, using treatment's log concentration range as the […] variable and normalized green area. Plate imaging performed at 11 and 18 DAA. RGB data for green area per well was documented and used to extract % inhibition. Dose-Response curves were built for each treatment to infer EC50, EC75 and EC90 parameters, using treatment's log concentration range as the independent variable and normalized green area as the dependent variable. Treatments were compared to controls performance given RGB results and using student's t-test (p-val≤0.05). Compounds 104-154 were applied in either or both pre- and post-emergence mode to either or both monocot and dicot model plants, following the methods described above. The compounds were applied as a gradient of concentrations as listed above, from which the ED50 was calculated.

Arabidopsis thaliana [2] = assay: HTPS pre-emergence application on dicot model plant; conditions: for ED50 (g/ha): dose-response of normalized green area; for Max Inhibition (%): green area (RGB)
Procedure: as §1, with “area. […]” for “area.”

Abutilon theophrasti [3] = assay: LTP pre-emergence greenhouse test; conditions: Dosage 2000 g/ha
Procedure: (§2) A basic panel of 8 weed species (Table 3) were sowed in 4×4×7 cm plastic pots containing inert sand (Sweet sand), intensively washed using osmosis water. Each specie was sowed in a separate pot. In each pot 10-15 seeds were sowed according to the specie viability. Sowing was performed one day before application. The plants were grown for 21 days in a controlled greenhouse (26±2° C. day 20±2° C. night). Hood irrigation (tap water+Shefer 5:3:8 8 mM) was given at a 50% water content by weight. Compounds were soluble in water (DDW), and commercial herbicide control was soluble in formulation B (Table 4). Application was conducted with an industrial sprayer (TeeJet 6502E nozzle) at a rate of 2 kg/ha and spray volume of […]. Pre-emergence advanced dose response experiment application was conducted at six rates between 1-0.0312 kg/ha and spray volume of […]. Percentage of emergence was evaluated at 15 DAA. Visual phenotyping was recorded using a scale of 0-6 (0: no visible effect, 6: maximum effect) at 18 DAA. All experiments included an untreated control, a solvent control and a positive control (commercial herbicide A.I.). […] Statistical analysis for plant emergence determined by % emergence ≥50 and T test (pval≤0.05), as well as Wilcox test (pval≤0.05).

Alopecurus myosuroides [4] = assay: LTP pre-emergence greenhouse test; conditions: Dosage 2000 g/ha
Procedure: as §2

Amaranthus palmeri [5] = assay: LTP pre-emergence greenhouse test; conditions: Dosage 2000 g/ha
Procedure: as §2

Ambrosia artemisiifolia [6] = assay: LTP pre-emergence greenhouse test; conditions: Dosage 2000 g/ha
Procedure: as §2

Lolium perenne [7] = assay: LTP pre-emergence greenhouse test; conditions: Dosage 2000 g/ha
Procedure: as §2

Matricaria chamomilla [8] = assay: LTP pre-emergence greenhouse test; conditions: Dosage 2000 g/ha
Procedure: as §2

Poa annua [9] = assay: LTP pre-emergence greenhouse test; conditions: Dosage 2000 g/ha
Procedure: as §2

Setaria viridis [10] = assay: LTP pre-emergence greenhouse test; conditions: Dosage 2000 g/ha
Procedure: as §2

Setaria viridis [11] = assay: LTP post-emergence greenhouse test; conditions: Dosage 2000 g/ha
Alopecurus myosuroides [12] = assay: LTP post-emergence greenhouse test; conditions: Dosage 2000 g/ha
Lolium perenne [13] = assay: LTP post-emergence greenhouse test; conditions: Dosage 2000 g/ha
Poa annua [14] = assay: LTP post-emergence greenhouse test; conditions: Dosage 2000 g/ha
Amaranthus palmeri [15] = assay: LTP post-emergence greenhouse test; conditions: Dosage 2000 g/ha
Matricaria chamomilla [16] = assay: LTP post-emergence greenhouse test; conditions: Dosage 2000 g/ha
Abutilon theophrasti [17] = assay: LTP post-emergence greenhouse test; conditions: Dosage 2000 g/ha
Ambrosia artemisiifolia [18] = assay: LTP post-emergence greenhouse test; conditions: Dosage 2000 g/ha
[19] = tested on: monocot and eudicot weeds species; assay: In-planta LTP weed panel, overall assessment; conditions: for growth inhibition (in words): dicot species, either pre- or post-emergence applications
[20] = tested on: monocot and dicot model plants; assay: In-planta HTPS, overall assessment; conditions: on monocots
Procedure: The plates were placed in a controlled greenhouse in a random order inside a bath which allows flooding irrigation with tap water supplemented with a fertilizer. Applied compounds were dissolved into a final solution of 50% acetone, 49.9% DDW, 0.1% tween-20. A 96 well plate was used as a stock plate for preparing application solutions for 8 repeats. Each row contained different concentrations per chemical. Maximal concentration for application was 1.5 Kg/Ha and dilution factor is 2.5. Chemical application was performed one day after thinning out in a chemical hood. […] applied on first two true leaves in each well using 12 channel pipettes. Data collection: RGB (red, green, blue) data for green area per well was documented using camera. Data is collected at a few time points during the experiment: one day after thinning and before chemical application, two-, six- or nine-days post application. During the last two documentations, visual phenotyping was performed. Data analysis: Given RGB results and visual phenotype scores, a student t-test conducted to compare between treatment and control performance for continuous data (RGB) and Fisher exact test to analyze the non-continuous data (phenotypic scores). […] The compounds were applied as a gradient of concentrations as listed above, from which the ED50 was calculated.

CC(O)C(N)CCCCC(=O)NS(=O)(=O)CC1CCCC1 (centres unmarked) [Compound 101]
Emax (Arabidopsis thaliana [1]): 100%
ED50 (g/ha) (Arabidopsis thaliana [1]): 29 g/ha

COC(=O)CN(C)C(=O)CCCCC(N)C(C)O (centres unmarked) [Compound 102]
Emax (Arabidopsis thaliana [1]): 90%
ED50 (g/ha) (Arabidopsis thaliana [1]): 2 g/ha

C[C@H]1OC(=O)N[C@H]1CCCCC(=O)O [Compound 105, 5-((4S,5R)-5-methyl-2-oxooxazolidin-4-yl)pentanoic acid]
Emax (Arabidopsis thaliana [1]): 94%
ED50 (g/ha) (Arabidopsis thaliana [1]): 430 g/ha

C[C@@H]1OC(=O)N[C@@H]1CCCCC(=O)O [Compound 106, 5-((4R,5S)-5-methyl-2-oxooxazolidin-4-yl)pentanoic acid]
Emax (Arabidopsis thaliana [1]): 82%
ED50 (g/ha) (Arabidopsis thaliana [1]): >1000 g/ha

CC(N)CCCCC(=O)O (centres unmarked) [Compound 107]
Emax (Arabidopsis thaliana [1]): 100%
ED50 (g/ha) (Arabidopsis thaliana [1]): 200 g/ha

CCC(C)C(N)c1cccc(C(=O)O)c1 (centres unmarked) [Compound 108]
ED50 (g/ha) (Arabidopsis thaliana [2]): 175 g/ha
Max Inhibition (%) (Arabidopsis thaliana [2]): 100%

CC(C)(C)C(N)c1cccc(C(=O)O)c1 (centres unmarked) [Compound 109]
Herbicidal activity (In-planta), LTP-Pre emergence, Abutilon theophrasti (Abutilon theophrasti [3]): 0
Herbicidal activity (In-planta), LTP-Pre emergence, Alopecurus myosuroides (Alopecurus myosuroides [4]): 0
Herbicidal activity (In-planta), LTP-Pre emergence, Amaranthus palmeri (Amaranthus palmeri [5]): 40
Herbicidal activity (In-planta), LTP-Pre emergence, Ambrosia artemisiifolia (Ambrosia artemisiifolia [6]): 0
Herbicidal activity (In-planta), LTP-Pre emergence, Lolium perenne (Lolium perenne [7]): 0
Herbicidal activity (In-planta), LTP-Pre emergence, Matricaria chamomilla (Matricaria chamomilla [8]): 0
Herbicidal activity (In-planta), LTP-Pre emergence, Poa annua (Poa annua [9]): 0
Herbicidal activity (In-planta), LTP-Pre emergence, Setaria viridis (Setaria viridis [10]): 0
Herbicidal activity (In-planta), LTP-Post emergence, Setaria viridis (Setaria viridis [11]): 0
Herbicidal activity (In-planta), LTP-Post emergence, Alopecurus myosuroides (Alopecurus myosuroides [12]): 0
Herbicidal activity (In-planta), LTP-Post emergence, Lolium perenne (Lolium perenne [13]): 0
Herbicidal activity (In-planta), LTP-Post emergence, Poa annua (Poa annua [14]): 0
Herbicidal activity (In-planta), LTP-Post emergence, Amaranthus palmeri (Amaranthus palmeri [15]): 40
Herbicidal activity (In-planta), LTP-Post emergence, Matricaria chamomilla (Matricaria chamomilla [16]): 0
Herbicidal activity (In-planta), LTP-Post emergence, Abutilon theophrasti (Abutilon theophrasti [17]): 0
Herbicidal activity (In-planta), LTP-Post emergence, Ambrosia artemisiifolia (Ambrosia artemisiifolia [18]): 40
ED50 (g/ha) (Arabidopsis thaliana [2]): 24 g/ha
Emax (Arabidopsis thaliana [1]): 100%
ED50 (g/ha) (Arabidopsis thaliana [1]): 200 g/ha
growth inhibition (in words) [19]: moderate growth inhibition

CCC(O)C(N)CCCCC(=O)O (centres unmarked) [Compound 113]
Emax (Arabidopsis thaliana [1]): 100%
ED50 (g/ha) (Arabidopsis thaliana [1]): 26 g/ha

C[C@H](O)[C@@H](N)CCCCC(=O)O [Compound 114]
Emax (Arabidopsis thaliana [1]): 100%
ED50 (g/ha) (Arabidopsis thaliana [1]): 40 g/ha

C[C@@H](O)[C@H](N)CCCCC(=O)O [Compound 115]
Emax (Arabidopsis thaliana [1]): 100%
ED50 (g/ha) (Arabidopsis thaliana [1]): 13 g/ha

O=C(O)CCCCC1CCNC1 (centres unmarked) [Compound 123]
Emax (Arabidopsis thaliana [1]): 100%
ED50 (g/ha) (Arabidopsis thaliana [1]): 140 g/ha

NC1CCC(CCCC(=O)O)C1 (centres unmarked) [Compound 143]
Emax (Arabidopsis thaliana [1]): 100%
ED50 (g/ha) (Arabidopsis thaliana [1]): 61 g/ha

COC(=O)CCCSC1CCCC1N (centres unmarked) [Compound 146]
Herbicidal activity (In-planta), LTP-Pre emergence, Abutilon theophrasti (Abutilon theophrasti [3]): 0
Herbicidal activity (In-planta), LTP-Pre emergence, Alopecurus myosuroides (Alopecurus myosuroides [4]): 0
Herbicidal activity (In-planta), LTP-Pre emergence, Amaranthus palmeri (Amaranthus palmeri [5]): 60-80
Herbicidal activity (In-planta), LTP-Pre emergence, Ambrosia artemisiifolia (Ambrosia artemisiifolia [6]): 0
Herbicidal activity (In-planta), LTP-Pre emergence, Lolium perenne (Lolium perenne [7]): 40
Herbicidal activity (In-planta), LTP-Pre emergence, Matricaria chamomilla (Matricaria chamomilla [8]): 0
Herbicidal activity (In-planta), LTP-Pre emergence, Poa annua (Poa annua [9]): 0
Herbicidal activity (In-planta), LTP-Pre emergence, Setaria viridis (Setaria viridis [10]): 60
Emax (Arabidopsis thaliana [1]): 100%
ED50 (g/ha) (Arabidopsis thaliana [1]): 80 g/ha
growth inhibition (in words) [19]: moderate growth inhibition

COC(=O)CCSC1CCCC1N (centres unmarked) [Compound 147]
Max Inhibition (%) (Arabidopsis thaliana [2]): 100%
Emax (Arabidopsis thaliana [1]): 50%
ED50 (g/ha) (Arabidopsis thaliana [1]): 807 g/ha

O=C(O)CCCCC1CCCN1 (centres unmarked) [Compound 148]
Herbicidal activity (In-planta), LTP-Pre emergence, Abutilon theophrasti (Abutilon theophrasti [3]): 40-60
Herbicidal activity (In-planta), LTP-Pre emergence, Alopecurus myosuroides (Alopecurus myosuroides [4]): 0
Herbicidal activity (In-planta), LTP-Pre emergence, Amaranthus palmeri (Amaranthus palmeri [5]): 60-80
Herbicidal activity (In-planta), LTP-Pre emergence, Ambrosia artemisiifolia (Ambrosia artemisiifolia [6]): 60
Herbicidal activity (In-planta), LTP-Pre emergence, Lolium perenne (Lolium perenne [7]): 0
Herbicidal activity (In-planta), LTP-Pre emergence, Matricaria chamomilla (Matricaria chamomilla [8]): 60-80
Herbicidal activity (In-planta), LTP-Pre emergence, Poa annua (Poa annua [9]): 60-80
Herbicidal activity (In-planta), LTP-Pre emergence, Setaria viridis (Setaria viridis [10]): 40
Emax (Arabidopsis thaliana [1]): 100%
ED50 (g/ha) (Arabidopsis thaliana [1]): 30 g/ha
activity (in words) ([19]; dicots and monocots, applied pre-emergence): good to moderate activity

CCC(N)CCCCC(=O)O (centres unmarked) [Compound 149]
Emax (Arabidopsis thaliana [1]): 100%
ED50 (g/ha) (Arabidopsis thaliana [1]): 90 g/ha
activity (in words) [20]: very good activity

NC1CCCCC1CCCC(=O)O (centres unmarked) [Compound 152]
Emax (Arabidopsis thaliana [1]): 100%
ED50 (g/ha) (Arabidopsis thaliana [1]): 4 g/ha

O=C(O)CCCC1CCCNC1 (centres unmarked) [Compound 154]
Emax (Arabidopsis thaliana [1]): 100%
ED50 (g/ha) (Arabidopsis thaliana [1]): 8 g/ha
